From patent publication US4877876A, “Novel indenothiazole derivative and process for preparing the same” (Hisamitsu Pharmaceutical Co., Inc., priority 1986, dated 1989)
Where a name gives a salt, the structure may show the parent alone.

System: Wistar-strained male rats
Experiment: Pharmacological test: ulcer inhibition against ethanol-induced ulcer in rats
Assay type: in vivo
Conditions: test compounds 50 mg/kg orally, one hour before 1 ml pure ethanol orally; compared with 0.5% tragacanth control
Experimental: Groups each consisting of 9 to 10 Wistar-strained male rats, each weighing about 200 g, were used in the test after their abstinence from food and water for 24 hours. Each test compound of this invention was administered in an amount of 50 mg/kg and a comparative medicine, "Neuer" (tradename: produced by Daiichi Pharmaceutical Co., Ltd.; effective component: centraxate) in an amount of 300 mg/kg. Each of the test compounds was administered orally to each rat of a first group and the comparative medicine to each rat of a second group one hour before oral administration of 1 ml of pure ethanol per rat. One hour later, each rat was sacrificed by exsanguination and its stomach was enucleated and fixed with 10 ml of 70% ethanol for about 30 minutes. A 0.5% tragacanth solution was administered to each rat of a third group. The ulcer was measured for length with naked eyes, and the test groups of rats were measured for their respective ulcer inhibition ratios in comparison with that for the third group.
Both the test compounds and the comparative medicine were each suspended or dissolved in a 0.5% tragacanth gum saline solution for use in the test. […] [formula]

SMILES | Ulcer inhibition ratio
Fc1ccc2c(c1)Cc1sc(NCCCN3CCOCC3)nc1-2 [Example 1 (dihydrochloride), 2-(3-morpholinopropyl)amino-6-fluoro-8H-indeno[1.2-d]thiazole] | 94.1%
Fc1ccc2c(c1)Cc1sc(NCCCN3CCOCC3)nc1-2 [Example 1 (maleic acid salt), 2-(3-morpholinopropyl)amino-6-fluoro-8H-indeno[1.2-d]thiazole] | 89.5%
Fc1ccc2c(c1)Cc1sc(NCCCN3CCOCC3)nc1-2 [Example 1, 2-(3-morpholinopropyl)amino-6-fluoro-8H-indeno[1.2-d]thiazole] | 89.0%
Fc1ccc2c(c1)CC1SC(=NCCCN3CCOCC3)N=C21 (stereo not drawn) [Example 2] | 93.5%
CC(C)CNc1nc2c(s1)Cc1ccccc1-2 [Example 7] | 79.0%
Clc1ccc2c(c1)-c1nc(NCCN3CCOCC3)sc1C2 [Example 59] | 85.0%
c1ccc2c(c1)Cc1sc(NCCCN3CCOCC3)nc1-2 [Example 61] | 90.0%
CC1c2sc(NCCCN3CCOCC3)nc2-c2cccc(Cl)c21 (stereo not drawn) [Example 83 (dihydrochloride)] | 85.9%
c1ccc2c(c1)Cc1sc(NCCCCN3CCOCC3)nc1-2 [Example 92] | 83.4%
